According to US11058680B2, “Combinations of opioid/TLR4 antagonists and acetaminophen for use in the treatment of emotional pain and insomnia” (Allodynic Threapeutics, LLC, priority 2016, dated 2021):

Test system: insomnia
Test: Migraine open-label pilot study: insomnia on 4-point scale, night before vs. night after dosing (insomnia-free, insomnia intensity)
Type: in vivo, human
Conditions: for Change in insomnia-free / Change in insomnia-intensity: baseline to night after dosing; for Insomnia-intensity at baseline / Insomnia-intensity at night after dosing: sum of severity of all patients
Procedure: Sixteen unique patients were enrolled in an open phase pilot study for the acute treatment of migraine attacks, insomnia, and emotional pain. Of the sixteen patients, eleven were evaluated for one migraine attack, one for two attacks, two for four attacks, one for six attacks, and one for fourteen attacks. A total of forty-one […] treatments were evaluated. Patients received a single dose of one of the following treatment options:
The majority of the patients remained in the clinic for observation for 2 hours after dosing. They completed headache diary assessments immediately before and after dosing at time points: 7, 15, and 30 minutes; and 1, 1.5, 2, 3, 6, 12, 24, and 48 hours. Headache pain was assessed on a 4-point scale (0=none; 1=mild; 2=moderate; 3=severe). The assessment of photophobia, phonophobia, nausea, and neck/shoulder pain was assessed as present or absent. The assessment of emotional pain was recorded on a 4-point scale (0=none, 1=mild, 2=moderate, 3=severe). The assessment of difficulty sleeping or falling asleep (insomnia) was assessed on a 4-point scale (0=none, 1=mild, 2=moderate, 3=severe) at baseline, for the night before treatment and for the following nights at 24, and 48 hours. Patients recorded side effects severity at each time point. Patients recorded the time of the first rescue medication dose and all additional headache medications used within 48 hours. Patients were required to stay awake to record their assessments in the first 2 hours, sleeping was permitted thereafter. While asleep, assessments were completed according to patients' best estimation. For data analysis, it was assumed that a migraine attack is a unique patient. Patients were asked to specify (yes or no answer) to whether they experienced emotional pain symptoms such as: hurt feelings, sadness, fear, or anger. Patients who replied positively to having emotional pain were asked to specify the cause into one of the following options: relationship, work/school, money/debt, health, or loss/grief.

[1] = NTX/APAP 2.25 mg/325 mg, NTX 2.25 mg
[2] = NTX/APAP 3.25 mg/325 mg, NTX 3.25 mg
[3] = night after dosing, NTX/APAP 2.25 mg/325 mg, NTX 2.25 mg
[4] = night after dosing, NTX/APAP 3.25 mg/325 mg, NTX 3.25 mg
[5] = night after dosing, NTX/APAP 5 mg/325 mg, NTX 5 mg
[6] = night after dosing, NTX/APAP […]325 mg, NTX 1.5 mg
[7] = night after dosing, naltrexone/acetaminophen 2.25 mg/325 mg (N=21), naltrexone 2.25 mg (N=9)

SMILES: O=C1CC[C@@]2(O)[C@H]3Cc4ccc(O)c5c4[C@@]2(CCN3CC2CC2)[C@H]1O5 [naltrexone]
- Insomnia-free (24 h, combined doses): 11 (69) n (%)
- Insomnia-free (24 h time point = night following the day of initial dosing, NTX/APAP 2.25 mg/325 mg, NTX 2.25 mg): 6 (66) n (%)
- Insomnia-free (24 h time point = night following the day of initial dosing, NTX/APAP 3.25 mg/325 mg, NTX 3.25 mg): 2 (66) n (%)
- Insomnia-free (24 h time point = night following the day of initial dosing, NTX/APAP 5 mg/325 mg, NTX 5 mg): 1 (100) n (%)
- Insomnia-free (24 h time point = night following the day of initial dosing, NTX/APAP […]325 mg, NTX 1.5 mg): 2 (66) n (%)
- Insomnia-free (48 h, NTX/APAP 2.25 mg/325 mg, NTX 2.25 mg): 8 (88) n (%)
- Insomnia-free (48 h, NTX/APAP 5 mg/325 mg, NTX 5 mg): 1 (100) n (%)
- Insomnia-free (48 h, combined doses): 2 (13) n (%)
- Change in insomnia-free [1]: +2 (22) n (%)
- Change in insomnia-intensity [1]: −10 (−111) n (%)
- Change in insomnia-free [2]: +1 n (%)
- Change in insomnia-intensity [2]: −1 (−50) n (%)
- Change in insomnia-free (NTX/APAP 5 mg/325 mg, NTX 5 mg): 0 n (%)
- Change in insomnia-intensity (NTX/APAP 5 mg/325 mg, NTX 5 mg): +2 (+200) n (%)
- Change in insomnia-free (NTX/APAP […]325 mg, NTX 1.5 mg): 0 n (%)
- Change in insomnia-intensity (NTX/APAP […]325 mg, NTX 1.5 mg): −2 (−66) n (%)
- Insomnia-free at baseline [1]: 4 (44) n (%)
- Insomnia-free at baseline [2]: 1 n (%)
- Insomnia-free at baseline (NTX/APAP 5 mg/325 mg, NTX 5 mg): 0 n (%)
- Insomnia-free at baseline (NTX/APAP […]325 mg, NTX 1.5 mg): 2 n (%)
- Insomnia-free at night after dosing [3]: 6 (66) n (%)
- Insomnia-free at night after dosing [4]: 2 (66) n (%)
- Insomnia-free at night after dosing [5]: 0 n (%)
- Insomnia-free at night after dosing [6]: 2 n (%)
- insomnia intensity change from baseline [7]: −111%
- insomnia-free change from baseline [7]: 22%
- insomnia intensity improved by (night before vs. night after treatment, naltrexone 2.25 mg (n=9)): 111%
- Insomnia-intensity at baseline [1]: 14 (155) n (%)
- Insomnia-intensity at baseline [2]: 2 n (%)
- Insomnia-intensity at baseline (NTX/APAP 5 mg/325 mg, NTX 5 mg): 1 n (%)
- Insomnia-intensity at baseline (NTX/APAP […]325 mg, NTX 1.5 mg): 3 n (%)
- Insomnia-intensity at night after dosing [3]: 4 (44) n (%)
- Insomnia-intensity at night after dosing [4]: 1 n (%)
- Insomnia-intensity at night after dosing [5]: 3 n (%)
- Insomnia-intensity at night after dosing [6]: 1 n (%)
